This is an account of results in patent US20080306076A1, “MODULATION OF CHEMOSENSORY RECEPTORS AND LIGANDS ASSOCIATED THEREWITH” (SENOMYX, INC., priority 2007, published 2008).

Changes are numbered by the printed parent chain.

The target of one assay is T1, hT1R1 H308A (Homo sapiens, UniProt Q7RTX1, H308A).
T1 construct: expressed in transfected cells; host or cells: HEK293, transient transfection
T1 sequence (Q7RTX1 21-841 H308A): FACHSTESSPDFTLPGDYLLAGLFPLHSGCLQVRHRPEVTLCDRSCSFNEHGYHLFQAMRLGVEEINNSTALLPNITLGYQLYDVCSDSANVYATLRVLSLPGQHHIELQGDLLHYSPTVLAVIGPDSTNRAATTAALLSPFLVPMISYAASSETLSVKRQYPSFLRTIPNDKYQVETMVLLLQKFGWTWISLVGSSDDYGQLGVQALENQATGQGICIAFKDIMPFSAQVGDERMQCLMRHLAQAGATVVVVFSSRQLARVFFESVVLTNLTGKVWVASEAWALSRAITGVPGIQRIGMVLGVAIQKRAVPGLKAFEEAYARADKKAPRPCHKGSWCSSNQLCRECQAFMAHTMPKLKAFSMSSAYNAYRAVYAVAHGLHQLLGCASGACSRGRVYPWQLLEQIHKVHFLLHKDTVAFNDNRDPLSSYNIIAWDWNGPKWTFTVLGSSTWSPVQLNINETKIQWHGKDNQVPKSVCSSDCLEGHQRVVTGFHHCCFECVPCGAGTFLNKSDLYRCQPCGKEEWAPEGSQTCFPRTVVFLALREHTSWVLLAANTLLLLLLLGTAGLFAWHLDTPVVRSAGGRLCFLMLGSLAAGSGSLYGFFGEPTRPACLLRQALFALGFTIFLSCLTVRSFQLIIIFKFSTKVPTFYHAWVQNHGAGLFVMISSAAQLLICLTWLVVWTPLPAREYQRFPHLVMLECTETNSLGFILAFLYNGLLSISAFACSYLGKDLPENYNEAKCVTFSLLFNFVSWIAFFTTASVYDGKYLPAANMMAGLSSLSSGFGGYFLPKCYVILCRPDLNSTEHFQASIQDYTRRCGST
T1 sequence (Q923K1 21-858 partner): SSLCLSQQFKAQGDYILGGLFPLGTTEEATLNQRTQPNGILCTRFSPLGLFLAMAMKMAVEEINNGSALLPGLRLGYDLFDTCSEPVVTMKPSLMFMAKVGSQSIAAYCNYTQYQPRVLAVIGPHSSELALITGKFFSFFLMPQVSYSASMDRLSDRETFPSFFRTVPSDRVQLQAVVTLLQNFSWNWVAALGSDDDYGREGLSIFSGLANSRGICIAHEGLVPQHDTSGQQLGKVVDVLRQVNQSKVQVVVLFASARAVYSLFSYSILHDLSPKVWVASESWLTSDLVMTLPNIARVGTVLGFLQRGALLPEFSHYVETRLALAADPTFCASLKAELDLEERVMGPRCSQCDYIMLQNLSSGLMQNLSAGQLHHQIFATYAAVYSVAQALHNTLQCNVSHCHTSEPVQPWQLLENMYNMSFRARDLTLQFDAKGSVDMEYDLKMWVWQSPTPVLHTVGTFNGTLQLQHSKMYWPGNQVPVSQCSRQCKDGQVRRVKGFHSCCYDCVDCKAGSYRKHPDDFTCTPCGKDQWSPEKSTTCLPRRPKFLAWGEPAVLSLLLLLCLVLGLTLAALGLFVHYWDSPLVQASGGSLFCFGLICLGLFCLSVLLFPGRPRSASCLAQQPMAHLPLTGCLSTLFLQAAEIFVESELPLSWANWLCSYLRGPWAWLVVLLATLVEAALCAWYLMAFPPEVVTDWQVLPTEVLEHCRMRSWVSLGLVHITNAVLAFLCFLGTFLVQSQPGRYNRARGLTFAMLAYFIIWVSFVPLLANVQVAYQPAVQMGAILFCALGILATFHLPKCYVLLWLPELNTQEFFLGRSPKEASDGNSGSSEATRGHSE
Nature of the assay: Mutagenesis study, hT1R1 mutant H308A. It counts as cell-based. The following applies: H308 mutation. An excerpt: (§1) In order to further define the interaction sites of umami stimuli, we performed site-directed mutagenesis on human T1R1 VFT. The mutagenesis was done using the routine PCR-based method. […] were transiently transfected into HEK293 cell together with the rat T1R3 wild type cDNA, and the transfected cells were characterized using an automated FLIPR machine or a calcium imaging system as described in our previous patent applications.

Another assay has as its target T2, hT1R1 Y220A (Homo sapiens, UniProt Q7RTX1, Y220A).
T2 construct: expressed in transfected cells; host or cells: HEK293, transient transfection
T2 sequence (Q7RTX1 21-841 Y220A): T1 sequence (Q7RTX1 21-841 H308A) with Y200A, A288H
T2 sequence (Q923K1 21-858 partner): T1 sequence (Q923K1 21-858 partner)
Nature of the assay: Mutagenesis study, hT1R1 mutant Y220A. Conditions: Y220 mutant, FIG. 11. It counts as cell-based.
Excerpt: as §1

Turning to `Nc1nc2c(ncn2[C@@H]2O[C@H](COP(=O)(O)O)[C@@H](O)[C@H]2O)c(=O)[nH]1` [GMP, guanosine-5′-monophosphate], on hT1R1 H308A, the “enhancement activity of GMP” value is “similarly affected”. Regarding `N[C@@H](CCC(=O)O)C(=O)O` [L-Glu, L-glutamate], at hT1R1 Y220A, the “activity against L-Glu” value was “significant reduced activity”.
